Like-named read-outs stand apart in the source and are kept apart here.
Key:
[1] = tested on: PAF-induced aggregation of rabbit blood platelets; assay: Anti-PAF activity in vitro, PAF-induced platelet aggregation; format: cell-based, rabbit (New Zealand hybrids); details: Oryctolagus cuniculus, test substance 10^-5 mole/l, pH 7.4
Source text: 4. Determination of Anti-PAF Activity In Vitro
PAF (=Platelet Activating Factor) is a phospholipid mediator which has many effects. Activation of platelet aggregation induces protracted broncho-contraction and hyper-reactivity of the air paths.
In this test the effect of the test substances on platelet aggregation induced by adding PAF to a suspension of platelets obtained from rabbit blood is investigated using the method described by Mikashima et al. (Jap. J. Pharmacol. 44 (1987) 387-391).
A suspension of platelets obtained from rabbit blood containing 4×10^9 platelets/ml in a modified Tyrode buffer solution (=Tyrode solution with 1.3 mM/l CaCl2 and 2.5 g/l gelatine added) adjusted to pH 7.4 was used. Tyrode solution is an aqueous solution containing 136.9 mmoles NaCl, 2.68 mmoles KCl, 2.31 mmoles CaCl2, 1.0 mmole MgCl2, 11.9 mmoles NaHCO3, 1.45 mmoles NaH2 PO4 and 5.55 mmoles glucose per liter. The platelets were obtained from 10 ml blood samples from each of three rabbits (New Zealand hybrids, body weight 3-4 kg). For this the blood samples were treated with ethylenediamine tetraacetic acid and washed according to the method of Artley et al. (Brit. J. Hematol. 19 (1970), 7-17). A platelet-rich plasma was then initially separated by centrifuging (20 minutes at 400×g). The blood platelets were separated from the plasma by recentrifuging for 15 minutes at 1,400×g. The platelets remaining as sediment after centrifuging were resuspended in a Tyrode buffer solution (but without calcium). 0.4 mmole of lysine acetylsalicylate was then added, and after 15 minutes the platelets were sedimented again. The sediment was resuspended in the aforementioned modified Tyrode buffer solution, and the number of platelets in the resulting suspension was adjusted to the desired content.
A 40×10^-9 molar PAF solution was used as a reagent. This solution was made from a 1.8×10^-3 molar stock solution in chloroform. For this purpose a 10 μl sample of the stock solution was evaporated to dryness and redissolved in 180 μl of the modified Tyrode solution to which 0.25% of lipid-free bovine serum albumin had been added. From this 10^-5 molar working solutions were then prepared and stored frozen. Samples of these solutions were appropriately diluted for the tests.
To carry out the test 50 μl of the platelet suspension and 10 μl of a 40×10^-5 molar solution of the compound being investigated were added with stirring (1,000 rpm) to 330 μl of the modified Tyrode buffer solution in an aggregation tube provided with a small magnetic stirrer. This corresponds to a final test substance concentration of 10^-5 mole/l. After 90 seconds preincubation time, 10 μl of the PAF preparation were added. The aggregation occurring in the aggregation tubes was measured over 4-5 minutes with the aid of a computerized aggregometer.
The aggregation which occurred in test tubes containing only platelet suspension was evaluated as 0%, whereas the aggregation which occurred in test tubes containing platelet suspension and PAF preparation was evaluated as 100%. The aggregation which still occurred during the inhibition of the PAF induced platelet aggregation due to the addition of the test substances was measured, and the resulting aggregation inhibition was calculated therefrom in %.

histamine-(H1)-receptor = target: T1, histamine-(H1)-receptor (Cavia porcellus, UniProt P31389); assay: Histamine-(H1)-receptor antagonism in vitro, histamine-induced contractions of isolated ileum; format: cell-based, guinea pig (Dunkin Hartley); details: test substance 10^-6 mole/l, histamine 5 × 10^-6 mole/l
T1 construct: Segments of the ileum 1.5 cm long from Dunkin Hartley guinea pigs; from tissue; host or cells: isolated ileum of Dunkin Hartley guinea pigs
T1 sequence (P31389 whole entry): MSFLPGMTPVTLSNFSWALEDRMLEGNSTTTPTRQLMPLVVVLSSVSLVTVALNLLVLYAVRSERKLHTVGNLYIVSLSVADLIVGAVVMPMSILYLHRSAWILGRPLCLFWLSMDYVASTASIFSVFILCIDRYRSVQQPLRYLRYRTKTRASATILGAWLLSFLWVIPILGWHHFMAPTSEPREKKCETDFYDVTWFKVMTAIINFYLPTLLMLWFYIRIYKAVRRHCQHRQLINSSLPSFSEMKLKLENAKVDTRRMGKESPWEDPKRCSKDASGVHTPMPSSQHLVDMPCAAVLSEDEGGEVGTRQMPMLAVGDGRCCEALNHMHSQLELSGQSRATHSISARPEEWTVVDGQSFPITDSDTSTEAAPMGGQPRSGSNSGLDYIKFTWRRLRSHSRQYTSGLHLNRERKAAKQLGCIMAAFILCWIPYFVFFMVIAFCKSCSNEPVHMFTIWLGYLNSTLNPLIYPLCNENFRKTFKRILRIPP
Experimental: 3. Investigation of Anti-Histamine-(H1) Effect Based on Histamine-(H1)-Receptor Antagonism In Vitro
To investigate the histamine-(H1)-receptor antagonism of the test substances, the inhibiting effect of the substances on histamine-induced contractions of the smooth muscle was determined in vitro on the isolated organ. Isolated strips of organ from the ileum are suitable for this purpose. In an organ bath of physiological saline solution the smooth muscle strips react to the addition of histamine by contracting. […] The extent of regression of the contraction is an indication of the anti-histamine-(H1) activity of the compounds. The investigation was carried out analogously to the method originally described by Magnus (Pfluegers Arch. 102, 123 (1904)).
Procedure for determining the smooth muscle contraction inhibiting effect on isolated guinea pig ileum induced by a 5×10^-6 molar histamine concentration
Segments of the ileum 1.5 cm long from Dunkin Hartley guinea pigs having a body weight of 300 500 g were used for the test. Each strip was placed in an organ bath of 10 ml of physiological saline solution according to Krebs-Henseleit and attached to a conventional apparatus for isotonic measurement of changes in length of the ileum strips (automated Celaster measuring apparatus), so that the tissue was under 1 g of tension. The bath was kept at a pH of 7.4 and gassed with a mixture of 5% CO2 and 95% O2. After an equilibration phase, an isotonic contraction of the tissue was induced by adding histamine in a final concentration of 5×10^-6 mole/liter and washing it out again after a contact time of 30 seconds. Only tissues samples from which three reproducible contractions were obtained at 10 minute intervals were used in the subsequent test. The test substances were then added in a final concentration of 10^-6 mole/liter, and after 30 seconds contact time histamine was again added up to a concentration of 5×10^-6 mole/liter. The resulting contractions were measured over 30 seconds. The tissue was then washed several times over a period of 10 minutes. Histamine was then added again to stimulate a contraction. The resulting contractions were again measured over 30 seconds. The difference between the amplitude of the contraction obtained by histamine addition alone and the amplitude of the contraction obtained in the presence of the test substance was determined and expressed in terms of % inhibition.
The inhibiting effects on the contractions induced by histamine 30 seconds after administration of the test substance and on the contractions induced by the addition of histamine 10 minutes later are listed in the table.

[2] = 0.5 min, after 30 seconds, read-out: % inhibition of histamine-induced ileum contractions after 30 seconds
[3] = 10 min, after 10 minutes (after washing), read-out: % inhibition of histamine-induced ileum contractions after 10 minutes

Row | Structure (SMILES) | inhibition at 10 µM [1] [%] | inhibition at 1 µM (histamine-(H1)-receptor; [2]) [%] | inhibition at 1 µM (histamine-(H1)-receptor; [3]) [%]
1 | Cc1ccnc(N2CCN(CCCC3Oc4ccccc4NC3=O)CC2)c1 (stereo not drawn) [Example 9] | 51 | – | –
2 | Cc1ccnc(N2CCN(CCCC3Sc4ccccc4NC3=O)CC2)c1 (stereo not drawn) [Example 8] | 48 | 42 | 5
3 | Cc1ccnc(N2CCN(CCCCC3Oc4ccccc4NC3=O)CC2)c1 (stereo not drawn) [Example 7] | – | 85 | 74
4 | Cc1ccnc(N2CCN(CCCC3Sc4ccccc4NC3=S)CC2)c1 (stereo not drawn) [Example 11] | 96 | 32 | 35

From US5332733A, “Heterocyclically substituted piperazinoakylbenzoxazine and piperazinoalkylbenzothiazine compounds, processes for preparing them, and medicaments containing them” (Kali-Chemie Pharma GmbH, priority 1990, dated 1994)
